Experimental data taken from patent US9550803B2, “Method to improve antiviral activity of nucleotide analogue drugs” (priority 2011, dated 2017).
Like-named read-outs stand apart in the source and are kept apart here.

Assays:
vaccinia virus = assay: microbe, parasite or virus in culture; format: cell-based; settings: read-out: Antiviral activity, IC50 Vaccinia
in vitro = settings: human
[1] = system: human cytomegalovirus (HCMV); assay: microbe, parasite or virus in culture; format: cell-based; settings: read-out: Antiviral activity, IC50 HCMV
cowpox virus = assay: microbe, parasite or virus in culture; format: cell-based; settings: read-out: Antiviral activity, IC50 Cowpox
[2] = Orthopoxvirus vaccinia, HFF, 72 h
[3] = Human betaherpesvirus 5, HFF, 240 h

Q: With `Nc1ccn(C[C@@H](CO)OCP(=O)(O)O)c(=O)n1` [(S)-HPMPC, cidofovir, reference compound] as the compound, how does the IC50 (vaccinia virus; [2]) read?
A: 10 µM

Q: What about the CC50 (in vitro) of the same compound?
A: > 100 µM

Q: What about the IC50 [1, 3] of the same compound?
A: 300 nM

Q: What about the IC50 (cowpox virus; Cowpox virus, HFF, 72 h) of the same compound?
A: 25 µM

Q: What does the source list for `CCCCCCCCCCCCNC(=O)[C@@H](N)Cc1ccc(OP(=O)(O)CO[C@H](CO)Cn2cnc3c(N)ncnc32)cc1` [Compound 9b, O-[([[(2S)-1-(6-Amino-9H-purin-9-yl)-3-hydroxypropan-2-yl]oxy]methyl)(hydroxy)-phosphoryl]-N-dodecyl-(L)-tyrosinamide]?
A: CC50 (in vitro): 15 µM; IC50 [1, 3]: < 0.001 nM

Q: With `CCCCCCCCCCCCCCNC(=O)[C@@H](N)Cc1ccc(OP(=O)(O)CO[C@H](CO)Cn2cnc3c(N)ncnc32)cc1` [Compound 9c, O-[([[(2S)-1-(6-Amino-9H-purin-9-yl)-3-hydroxypropan-2-yl]oxy]methyl)(hydroxy)-phosphoryl]-N-tetradecyl-(L)-tyrosinamide] as the compound, how does the CC50 (in vitro) read?
A: 20 µM

Q: And the IC50 [1, 3]?
A: < 0.001 nM

Q: What does the source list for `CCCCCCCCCCCCCCCCCCNC(=O)[C@@H](N)Cc1ccc(OP(=O)(O)CO[C@H](CO)Cn2cnc3c(N)ncnc32)cc1` [Compound 9e, O-[([[(2S)-1-(6-Amino-9H-purin-9-yl)-3-hydroxypropan-2-yl]oxy]methyl)-(hydroxy)-phosphoryl]-N-octadecyl-(L)-tyrosinamide]?
A: CC50 (in vitro): 10 µM; IC50 [1, 3]: < 0.001 nM

Q: Which results are given for `CCCCCCCCCCCCCCCCNC(=O)[C@@H](N)Cc1ccc(OP2(=O)CO[C@@H](Cn3cnc4c(N)ncnc43)CO2)cc1` (stereo partly drawn) [Compound 8d, O-[(5S)-5-[(6-Amino-9H-purin-9-yl)methyl]-2-oxido-1,4,2-dioxaphosphinan-2-yl]-N-hexadecyl-(L)-tyrosinamide]?
A: IC50 (vaccinia virus; [2]): 0.006 µM; CC50 (in vitro): 11 µM; IC50 [1, 3]: < 0.001 nM; IC50 (cowpox virus; Cowpox virus, HFF, 72 h): < 0.1 µM

Q: For `Nc1ncnc2c1ncn2C[C@@H](CO)OCP(=O)(O)O` [(S)-HPMPA, (S)-9-(3hydroxy-2-phosphonyl-methoxypropyl)adenine, reference compound], which IC50 (vaccinia virus) is on record?
A: 2.5 µM

Q: What about the IC50 [1] of the same compound?
A: 6000 nM

Q: And the IC50 (cowpox virus)?
A: 20 µM

Q: What about the CC50 (KB cells) of the same compound?
A: > 100 µM

Q: For `CCCCCCCCNC(=O)[C@@H](N)Cc1ccc(OP(=O)(O)COCCn2cnc3c(N)ncnc32)cc1` [Compound 14a, O-[{[2-(6-Amino-9H-purin-9-yl)ethoxy]methyl}(hydroxy)phosphoryl]-N-octyl-L-tyrosinamide], which IC50 (vaccinia virus; [2]) is on record?
A: 50 µM

Q: And the CC50 (in vitro)?
A: 100 µM

Q: And the IC50 [1, 3]?
A: 35000 nM

Q: What about the IC50 (cowpox virus; Cowpox virus, HFF, 72 h) of the same compound?
A: > 100 µM

Q: What does the source list for `Nc1ncnc2c1ncn2C[C@H]1COP(=O)(O)CO1` [(S)-cHPMPA, reference compound]?
A: IC50 (vaccinia virus): 1 µM; IC50 [1]: 1500 nM; IC50 (cowpox virus): 2.5 µM; CC50 (KB cells): > 100 µM

Q: Which IC50 [1, 3] does the source give for `CCCCCCCCNC(=O)[C@@H](N)Cc1ccc(OP(=O)(O)CO[C@H](CO)Cn2cnc3c(N)ncnc32)cc1` [Compound 9a, O-[([[(2S)-1-(6-Amino-9H-purin-9-yl)-3-hydroxypropan-2-yl]oxy]methyl)(hydroxy)-phosphoryl]-N-octyl-(L)-tyrosinamide] here?
A: < 100 nM

Q: Which IC50 [1, 3] does the source give for `Nc1nc(O)c2ncn(COC(CO)CO)c2n1` [DHPG, Ganciclovir, reference compound] here?
A: 3000 nM

Q: With `CCCCCCCCCCCCCCCCNC(=O)[C@@H](N)Cc1ccc(OP(=O)(O)COCCn2cnc3c(N)ncnc32)cc1` [Compound 14b, O-[{[2-(6-Amino-9H-purin-9-yl)ethoxy]methyl}(hydroxy)phosphoryl]-N-hexadecyl-L-tyrosinamide] as the compound, how does the IC50 (vaccinia virus; [2]) read?
A: 4 µM

Q: What about the CC50 (in vitro) of the same compound?
A: 15 µM

Q: What about the IC50 [1, 3] of the same compound?
A: 2500 nM

Q: What about the IC50 (cowpox virus; Cowpox virus, HFF, 72 h) of the same compound?
A: 20 µM

Q: With `CCCCCCCCCCCCCCNC(=O)[C@@H](N)Cc1ccc(OP2(=O)CO[C@@H](Cn3cnc4c(N)ncnc43)CO2)cc1` (stereo partly drawn) [Compound 8c, O-[(5S)-5-[(6-Amino-9H-purin-9-yl)methyl]-2-oxido-1,4,2-dioxaphosphinan-2-yl]-N-tetradecyl-(L)-tyrosinamide] as the compound, how does the CC50 (in vitro) read?
A: 15 µM

Q: And the IC50 [1, 3]?
A: < 0.001 nM

Q: Which IC50 (vaccinia virus) does the source give for `Nc1ncnc2c1ncn2CCOCP(=O)(O)O` [PMEA, reference compound] here?
A: > 100 µM

Q: And the IC50 [1]?
A: 25000 nM

Q: And the IC50 (cowpox virus)?
A: > 100 µM

Q: What about the CC50 (KB cells) of the same compound?
A: > 100 µM

Q: What does the source list for `CCCCCCCCNC(=O)[C@@H](N)Cc1ccc(OP2(=O)CO[C@@H](Cn3cnc4c(N)ncnc43)CO2)cc1` (stereo partly drawn) [Compound 8a, O-[(5S)-5-[(6-Amino-9H-purin-9-yl)methyl]-2-oxido-1,4,2-dioxaphosphinan-2-yl]-N-octyl-(L)-tyrosinamide]?
A: IC50 (vaccinia virus; [2]): 1.5 µM; CC50 (in vitro): 100 µM; IC50 [1, 3]: 300 nM; IC50 (cowpox virus; Cowpox virus, HFF, 72 h): 3 µM

Q: Which CC50 (in vitro) does the source give for `CCCCCCCCCCCCNC(=O)[C@@H](N)Cc1ccc(OP2(=O)CO[C@@H](Cn3cnc4c(N)ncnc43)CO2)cc1` (stereo partly drawn) [Compound 8b, O-[(5S)-5-[(6-Amino-9H-purin-9-yl)methyl]-2-oxido-1,4,2-dioxaphosphinan-2-yl]-N-dodecyl-(L)-tyrosinamide] here?
A: 15 µM

Q: And the IC50 [1, 3]?
A: < 0.001 nM

Q: Which IC50 [1] does the source give for `CCCCCCCCCCCCCCCCNC(=O)[C@@H](N)Cc1ccc(OP(=O)(O)CO[C@H](CO)Cn2ccc(N)nc2=O)cc1` [Compound 9f, O-[([[(2S)-1-(4-amino-2-oxopyrimidin-(2H)-yl)-3-hydroxypropan-2-yl]oxy]methyl)-(hydroxy)phosphoryl]-N-hexadecyl-(L)-tyrosinamide] here?
A: < 0.001 nM

Q: What about the CC50 (KB cells) of the same compound?
A: 90 µM

Q: For `CC(=NNC(N)=S)c1ccccn1` [Compound 3L, 2-Acetylpyridine thiosemicarbazone, reference compound], which CC50 (in vitro) is on record?
A: 2 µM

Q: With `CCCCCCCCCCCCCCCCNC(=O)[C@@H](N)Cc1ccc(OP(=O)(O)CO[C@H](CO)Cn2cnc3c(N)ncnc32)cc1` [Compound 9d, O-[([[(2S)-1-(6-Amino-9H-purin-9-yl)-3-hydroxypropan-2-yl]oxy]methyl)(hydroxy)-phosphoryl]-N-hexadecyl-(L)-tyrosinamide] as the compound, how does the IC50 (vaccinia virus; [2]) read?
A: 0.003 µM

Q: And the CC50 (in vitro)?
A: 15 µM

Q: What about the IC50 [1, 3] of the same compound?
A: < 0.001 nM

Q: And the IC50 (cowpox virus; Cowpox virus, HFF, 72 h)?
A: < 0.1 µM

Q: Which CC50 (in vitro) does the source give for `CCCCCCCCCCCCCCCCNC(=O)[C@@H](N)Cc1ccc(OP2(=O)CO[C@@H](Cn3ccc(N)nc3=O)CO2)cc1` (stereo partly drawn) [Compound 8f, O-[(5S)-5-[(4-amino-2-oxopyrimidin-1(2H)-yl)methyl]-2-oxido-1,4,2-dioxaphosphinan-2-yl]-N-hexadecyl-(L)-tyrosinamide] here?
A: 15 µM

Q: What about the IC50 [1, 3] of the same compound?
A: < 0.001 nM

Q: Which IC50 (vaccinia virus) does the source give for `C[C@H](Cn1cnc2c(N)nc(N)nc21)OCP(=O)(O)O` [(R)-PMPDAP, reference compound] here?
A: > 100 µM

Q: What about the IC50 [1] of the same compound?
A: > 100000 nM

Q: What about the IC50 (cowpox virus) of the same compound?
A: > 100 µM

Q: And the CC50 (KB cells)?
A: > 100 µM

Q: With `CCCCCCCCNC(=O)[C@@H](N)Cc1ccc(OP(=O)(O)CO[C@H](C)Cn2cnc3c(N)nc(N)nc32)cc1` [Compound 15a, O-[({[(2R)-1-(2,6-diamino-9H-purin-9-yl)propan-2-yl]oxy}methyl)(hydroxy)phosphoryl]-N-octyl-L-tyrosinamide] as the compound, how does the IC50 (vaccinia virus; [2]) read?
A: > 100 µM

Q: What about the CC50 (in vitro) of the same compound?
A: > 100 µM

Q: What about the IC50 [1, 3] of the same compound?
A: > 100000 nM

Q: And the IC50 (cowpox virus; Cowpox virus, HFF, 72 h)?
A: > 100 µM

Q: Which CC50 (in vitro) does the source give for `CCCCCCCCCCCCCCCCCCNC(=O)[C@@H](N)Cc1ccc(OP2(=O)CO[C@@H](Cn3cnc4c(N)ncnc43)CO2)cc1` (stereo partly drawn) [Compound 8e, O-[(5S)-5-[(6-Amino-9H-purin-9-yl)methyl]-2-oxido-1,4,2-dioxaphosphinan-2-yl]-N-octadecyl-(L)-tyrosinamide] here?
A: 10 µM

Q: What about the IC50 [1, 3] of the same compound?
A: < 0.001 nM
